Measured values as given in publication PMC4826283 (Journal of nuclear medicine : official publication, Society …, 2014).

Test system: kappa opioid receptor (KOR)
Experiment: in vivo PET receptor occupancy
Assay type: cell-based, Macaca mulatta
Conditions: rhesus monkey, brain

Compound: Cc1cc(C)cc([C@@H]2CCCN2Cc2ccc(Oc3ccc(C(N)=O)cc3F)cc2)c1 [LY2456302]
- % occupancy at 0.3 mg/kg: 93 % occupancy at 0.3 mg/kg
